{"source": "patent US6696433B2", "about": "“Use of sex steroids function modulators to treat wounds and fibrotic disorders” (Renovo Limited, priority 1996, dated 2004)", "key": {"Human dermal fibroblasts": {"test_system": "Human dermal fibroblasts", "experiment": "Fibroblast proliferation, [3H] thymidine incorporation", "format": "cell-based", "settings": "for proliferation of fibroblasts: doses 1 pM to 1 mM, 24 hrs, fibroblasts from young and aged subjects, compared to cyclodextrin controls", "experimental": "(§1) Human dermal fibroblasts were explanted from the 4 mm punch biopsy specimens of normal skin. Fibroblasts used in the study were cultured at 37° C. in 95% air; 5% CO2 at 100% relative humidity, in phenol red-free DMEM (Gibco), 100 U/ml penicillin, […], 1 mM sodium pyruvate, 2 mM L-glutamine, non-essential amino acids and charcoal-stripped 10% FCS (Gibco, UK) (to remove endogenous steroids).\n(§2) Cultured cells at passage 3-5 were seeded overnight in 24-well plates at a density of 2×10^5 cells per well in serum free media. The following morning oestrogen or progesterone (made soluble by the incorporation of the carrier cyclodextrin; Sigma, Poole), ranging from 1 pM to 1 mM doses, were added to the medium for 24 hrs. All samples were assessed in triplicate. The media was removed after the 24 hr incubation. 1 mg/ml of aprotinin, leupeptin and pepstatin A was then added to the media which was used immediately in a TGF-β assay (see below). Controls included cyclodextrin at the appropriate concentration, and serum-free medium alone.\nThe cells were then incubated with [^3H] thymidine in serum-free medium (0.5 μCi/well) to assess the effect of oestrogen or progesterone on fibroblast proliferation. After 24 hrs, the thymidine solution was aspirated and replaced by 10% TCA for 4 hrs at 4° C. The TCA was replaced by 250 μls 1M NaOH solution for 18 hrs. Two 100 μl aliquots from each well were measured for radioactivity in a scintillation counter. In parallel experiments, the effect of hormones/controls on protein synthesis was investigated by the addition of 20 μg/ml cycloheximde (to inhibit protein translation) for 15 mins prior to the 24 hr incubation period."}, "[1]": {"test_system": "TGF-β1 secreted by dermal fibroblasts", "experiment": "TGF-β levels in fibroblast conditioned media, mink lung cell growth inhibition assay", "format": "cell-based, human", "settings": "for TGF-beta LEVELS: 24 hr; for FOLD INDUCTION of TGF-beta levels: relative to control; for active TGF-β1 (non-heat-activated samples): fibroblast conditioned media after 24 hr treatment, compared to control", "experimental": "as §1, §2\nTGF-β levels in the media (2.1.5.2) were determined using a mink lung growth inhibition assay as described by Danielpour et al, (J Cell Physiol, 138 p79-86) Briefly, mink lung epithelial cells (MLECs) were maintained in DMEM and 10% FCS at 37° C. in 10% CO2. Subconfluent cells were trypsinized, resuspended in 10% FCS, pelleted at 500 g for 5 min, washed with 10 ml of assay buffer (DMEM, 2% FCS, 10 mM HEPES pH 7.4, penicillin 25 U/ml, streptomycin 25 μg/ml), resuspended in assay buffer and seeded at 10^5 cells/well in a 24-well Costar plate. After 1 hr conditioned media or control media (with varying concentrations of hormones ranging from 1 pM-1 mM or cyclodextrin alone) were added, 22 hrs later cells were pulsed with [^3H] thymidine (0.5 μCi/well) for 2 hrs at 37° C., and the procedure described above for the extraction and measurement of radioactivity followed (2.1.5.3). A standard curve was produced using 10-1000 pg/ml TGF-β standard (R&D) from which inhibition data could be converted to pg/ml. Results were presented as pg/ml TGF-β/10^5 cells (relative to control valves for each individual hormone concentration)."}, "TGF-β1 mRNA": {"test_system": "TGF-β1 mRNA", "experiment": "Dermal fibroblast TGF-β1 mRNA levels by quantitative RT-PCR", "format": "cell-based, human", "experimental": "as §1, §2\nQuantitative RT-PCR was used to determine the steady-state levels of TGF-β1 mRNA in the acute wound and in 10^5 cells from the fibroblast in vitro studies (2.1.5) Cellular RNA was isolated from specimens using the method of Chomcynski and Sacchi (Anal, Biochem, 162 p156-159 (1987)). Purity of extraction was assessed using the A260/280 ratio spectrophotometrically, which in all cases was above 1.75. […] Quantitative RT-PCR was performed as described by Tarnuzzer et al. (Biotechniques 20 p670-674 (1996)) Briefly, the reverse transcriptase reaction was carried out using 8 decreasing dilutions of template with 1 μg of authentic cellular RNA. β-actin was used as a positive control. PCR reactions were carried out on the reverse transcription reaction. Electrophoresis was then carried out on a 2% agarose gel containing […] ethidium bromide at 100 v for 1 hr using an Electro 4 tank (Hybaid, Teddington, UK) and photographed using a dual intensity transilluminator (Genetic Research instrumentation, Dunmow (UK) with a Polaroid MP 4+ camera and 665 Polaroid Black and White film, Photographic images were captured using a PC Image Software system (Foster Finley, Newcastle, UK) on a 486 DX2 Dan computer (Dan, UK) and a CCD camera (Swift, UK). The band intensities were determined by image analysis using a Macintosh computer and NIH software programme. Band intensity values were normalised based on the molecular weights of the products. The log of the ratio of band intensities within each lane was plotted against the log of the copy number of template added per reaction. Quantities of target messages were determined where the ratio of template and target band intensities were equal to 1. Copy numbers were expressed per total RNA (for wound tissue) or expressed per cell (for in vitro studies). The latter were calculated by assuming 26 pg RNA/cell."}, "[2]": {"settings": "OLD person (2A or 2B) fibroblasts, mM dose"}, "[3]": {"settings": "OLD person (2A or 2B) fibroblasts, nM dose"}, "[4]": {"settings": "OLD person (2A or 2B) fibroblasts, pM dose"}, "[5]": {"settings": "OLD person (2A or 2B) fibroblasts, μM dose"}, "[6]": {"settings": "YOUNG person (2C) fibroblasts, mM dose"}, "[7]": {"settings": "YOUNG person (2C) fibroblasts, nM dose"}, "[8]": {"settings": "YOUNG person (2C) fibroblasts, pM dose"}, "[9]": {"settings": "YOUNG person (2C) fibroblasts, μM dose"}}, "note": "Marks after values point to notes of the source that are not given here."}
{"smiles": "CC(=O)[C@H]1CC[C@H]2[C@@H]3CCC4=CC(=O)CC[C@]4(C)[C@H]3CC[C@]12C", "note": "[Progesterone, progesterone]", "values": [{"measurement": "degree of inhibition of fibroblast proliferation relative to oestrogen", "setting": "Human dermal fibroblasts; at 1 mM, p<0.05", "value": "significantly greater degree than oestrogen"}, {"measurement": "proliferation of fibroblasts", "setting": "Human dermal fibroblasts", "value": "inhibited"}, {"measurement": "TGF-beta LEVELS", "setting": "[1]; [2]", "value": "33 ± 13", "unit": "pg/ml/10^5 cell/24 hr"}, {"measurement": "FOLD INDUCTION of TGF-beta levels", "setting": "[1]; [2]", "value": 1}, {"measurement": "TGF-beta LEVELS", "setting": "[1]; [3]", "value": "90 ± 38", "unit": "pg/ml/10^5 cell/24 hr"}, {"measurement": "FOLD INDUCTION of TGF-beta levels", "setting": "[1]; [3]", "value": "2.6*"}, {"measurement": "TGF-beta LEVELS", "setting": "[1]; [4]", "value": "32 ± 13", "unit": "pg/ml/10^5 cell/24 hr"}, {"measurement": "FOLD INDUCTION of TGF-beta levels", "setting": "[1]; [4]", "value": 1}, {"measurement": "TGF-beta LEVELS", "setting": "[1]; [5]", "value": "65 ± 15", "unit": "pg/ml/10^5 cell/24 hr"}, {"measurement": "FOLD INDUCTION of TGF-beta levels", "setting": "[1]; [5]", "value": "2*"}, {"measurement": "TGF-beta LEVELS", "setting": "[1]; [6]", "value": "82 ± 13", "unit": "pg/ml/10^5 cell/24 hr"}, {"measurement": "FOLD INDUCTION of TGF-beta levels", "setting": "[1]; [6]", "value": 0.8}, {"measurement": "TGF-beta LEVELS", "setting": "[1]; [7]", "value": "115 ± 20", "unit": "pg/ml/10^5 cell/24 hr"}, {"measurement": "FOLD INDUCTION of TGF-beta levels", "setting": "[1]; [7]", "value": 1}, {"measurement": "TGF-beta LEVELS", "setting": "[1]; [8]", "value": "70 ± 31", "unit": "pg/ml/10^5 cell/24 hr"}, {"measurement": "FOLD INDUCTION of TGF-beta levels", "setting": "[1]; [8]", "value": 0.6}, {"measurement": "TGF-beta LEVELS", "setting": "[1]; [9]", "value": "96 ± 13", "unit": "pg/ml/10^5 cell/24 hr"}, {"measurement": "FOLD INDUCTION of TGF-beta levels", "setting": "[1]; [9]", "value": 1}, {"measurement": "active TGF-β1 (non-heat-activated samples)", "setting": "[1]", "value": "no increase"}, {"measurement": "increase in TGF-β1 levels", "setting": "[1]; nM and μM doses, fibroblasts from the aged subjects (2A or 2B)", "value": 2, "unit": "fold"}, {"measurement": "effect on TGF-β1 production compared to controls", "setting": "[1]; young fibroblasts (Group 2C)", "value": "no significant effect"}, {"measurement": "TGF-beta mRNA LEVELS", "setting": "TGF-β1 mRNA; [2]", "value": "1300 ± 430", "unit": "copies/cell"}, {"measurement": "TGF-beta mRNA LEVELS", "setting": "TGF-β1 mRNA; [3]", "value": "1000 ± 275", "unit": "copies/cell"}, {"measurement": "TGF-beta mRNA LEVELS", "setting": "TGF-β1 mRNA; [4]", "value": "950 ± 210", "unit": "copies/cell"}, {"measurement": "TGF-beta mRNA LEVELS", "setting": "TGF-β1 mRNA; [5]", "value": "1110 ± 290", "unit": "copies/cell"}, {"measurement": "TGF-beta mRNA LEVELS", "setting": "TGF-β1 mRNA; [6]", "value": "1100 ± 310", "unit": "copies/cell"}, {"measurement": "TGF-beta mRNA LEVELS", "setting": "TGF-β1 mRNA; [7]", "value": "1145 ± 206", "unit": "copies/cell"}, {"measurement": "TGF-beta mRNA LEVELS", "setting": "TGF-β1 mRNA; [8]", "value": "1130 ± 254", "unit": "copies/cell"}, {"measurement": "TGF-beta mRNA LEVELS", "setting": "TGF-β1 mRNA; [9]", "value": "1090 ± 280", "unit": "copies/cell"}]}
{"smiles": "C[C@]12CC[C@@H]3c4ccc(O)cc4CC[C@H]3[C@@H]1CC[C@@H]2O", "note": "[Oestrogen]", "values": [{"measurement": "proliferation of fibroblasts", "setting": "Human dermal fibroblasts", "value": "inhibited"}, {"measurement": "TGF-beta LEVELS", "setting": "[1]; [2]", "value": "416 ± 80", "unit": "pg/ml/10^5 cell/24 hr"}, {"measurement": "TGF-beta LEVELS", "setting": "[1]; [3]", "value": "280 ± 60", "unit": "pg/ml/10^5 cell/24 hr"}, {"measurement": "TGF-beta LEVELS", "setting": "[1]; [4]", "value": "80 ± 50", "unit": "pg/ml/10^5 cell/24 hr"}, {"measurement": "TGF-beta LEVELS", "setting": "[1]; [5]", "value": "315 ± 47", "unit": "pg/ml/10^5 cell/24 hr"}, {"measurement": "TGF-beta LEVELS", "setting": "[1]; [6]", "value": "428 ± 58", "unit": "pg/ml/10^5 cell/24 hr"}, {"measurement": "TGF-beta LEVELS", "setting": "[1]; [7]", "value": "312 ± 30", "unit": "pg/ml/10^5 cell/24 hr"}, {"measurement": "TGF-beta LEVELS", "setting": "[1]; [8]", "value": "118 ± 24", "unit": "pg/ml/10^5 cell/24 hr"}, {"measurement": "TGF-beta LEVELS", "setting": "[1]; [9]", "value": "282 ± 22", "unit": "pg/ml/10^5 cell/24 hr"}, {"measurement": "active TGF-β1 (non-heat-activated samples)", "setting": "[1]", "value": "no increase"}, {"measurement": "TGF-beta mRNA LEVELS", "setting": "TGF-β1 mRNA; [2]", "value": "990 ± 325", "unit": "copies/cell"}, {"measurement": "TGF-beta mRNA LEVELS", "setting": "TGF-β1 mRNA; [3]", "value": "1100 ± 370", "unit": "copies/cell"}, {"measurement": "TGF-beta mRNA LEVELS", "setting": "TGF-β1 mRNA; [4]", "value": "1155 ± 215", "unit": "copies/cell"}, {"measurement": "TGF-beta mRNA LEVELS", "setting": "TGF-β1 mRNA; [5]", "value": "1100 ± 235", "unit": "copies/cell"}, {"measurement": "TGF-beta mRNA LEVELS", "setting": "TGF-β1 mRNA; [6]", "value": "1250 ± 188", "unit": "copies/cell"}, {"measurement": "TGF-beta mRNA LEVELS", "setting": "TGF-β1 mRNA; [7]", "value": "1300 ± 272", "unit": "copies/cell"}, {"measurement": "TGF-beta mRNA LEVELS", "setting": "TGF-β1 mRNA; [8]", "value": "1190 ± 300", "unit": "copies/cell"}, {"measurement": "TGF-beta mRNA LEVELS", "setting": "TGF-β1 mRNA; [9]", "value": "1180 ± 130", "unit": "copies/cell"}, {"measurement": "TGF-β1 mRNA levels, control versus treated fibroblasts", "setting": "TGF-β1 mRNA; varying concentrations of oestrogen, fibroblasts from all females regardless of age", "value": "No significant differences"}]}
